pEC50: −log10 of the molar value.
Columns and labels:
[1] = Cytotoxicity against human CEM cells assessed as inhibition of uninfected cells proliferation; format: cell-based; details: CEM (CCRF-CEM) cells, read-out: TC50 (the source's name)
[2] = Selectivity index, ratio of TC50 for human CEM cells to EC50 for SIV-induced syncytium; set-up: species or system CCRF-CEM
[3] = tested on: Simian immunodeficiency virus; assay: Antiviral activity against SIV-induced syncytium in human CEM cells assessed as inhibition of virus-induced cytopathogenicity after 5 days; format: functional, organism-based; details: CCRF-CEM, 120 h
[4] = tested on: Human immunodeficiency virus 1; assay: Inhibition of HIV1 Tat-TAR interaction-mediated transactivation in human 293T cells assessed as CAT gene expression at 30 uM after 24 hrs by ELISA; format: functional; details: Human immunodeficiency virus 1, HEK-293T

| Compound | CC50 [1] [µM] | Ratio [2] | pEC50 [3] | inhibition at 30 µM [4] [%] |
| --- | --- | --- | --- | --- |
| CCN(CC)c1nc(C)c2nc(SCC(=O)NCCCNC(=N)N)n(CCCn3cncn3)c2n1 | > 100 | >17.2 | 5.24 | – |
| CCN(CC)c1nc(C)c2nc(SCC(=O)NCCN)n(CCCN3CCOCC3)c2n1 | 64.8 | 5.2 | 4.91 | 80.4 |
| CCN(CC)c1nc(C)c2nc(SCC(=O)NCCCNC(=N)N)n(CCNc3nc(N)nc4[nH]cnc34)c2n1 | > 100 | >12 | 5.08 | – |
| CCN(CC)c1nc(C)c2nc(SCC(=O)NCCN)n(CCn3cncn3)c2n1 | > 100 | >7.2 | 4.86 | – |
| CCN(CC)c1nc(C)c2nc(SCC(=O)NCCNC(=N)N)n(CCNc3ncnc4[nH]cnc34)c2n1 | 92.7 | 11.9 | 5.11 | 48.2 |
| CCN(CC)c1nc(C)c2nc(SCC(=O)NCCNC(=N)N)n(CCCn3cncn3)c2n1 | > 100 | >18.5 | 5.27 | 48.2 |
| CCN(CC)c1nc(C)c2nc(SCC(=O)NCCNC(=N)N)n(CCn3cncn3)c2n1 | > 100 | >8.1 | 4.91 | – |
| CCN(CC)c1nc(C)c2nc(SCC(=O)NCCCNC(=N)N)n(CCn3cncn3)c2n1 | > 100 | >14.1 | 5.15 | – |
| CCN(CC)c1nc(C)c2nc(SCC(=O)NCCCNC(=N)N)n(CCCN3CCOCC3)c2n1 | > 100 | >8.9 | 4.95 | 48.2 |
| CCN(CC)c1nc(C)c2nc(SCC(=O)NCCCN)n(CCc3c[nH]c4ccccc34)c2n1 | 10.2 | 2.4 | 5.38 | – |
| CCN(CC)c1nc(C)c2nc(SCC(=O)NCCCN)n(CCNc3ncnc4[nH]cnc34)c2n1 | > 100 | >18.2 | 5.26 | 52.3 |
| CCN(CC)c1nc(C)c2nc(SCC(=O)NCCN)n(CCc3c[nH]c4ccccc34)c2n1 | 6.5 | 4.1 | 5.80 | – |
| CCN(CC)c1nc(C)c2nc(SCC(=O)NCCCN)n(CCn3cncn3)c2n1 | > 100 | >8.7 | 4.94 | – |
| CCN(CC)c1nc(C)c2nc(SCC(=O)NCCN)n(CCCn3cncn3)c2n1 | > 100 | >14.5 | 5.16 | 48.2 |
| CCN(CC)c1nc(C)c2nc(SCC(=O)NCCNC(=N)N)n(CCc3c[nH]c4ccccc34)c2n1 | 29.5 | 3.7 | 5.10 | – |
| CCN(CC)c1nc(C)c2nc(SCC(=O)NCCCN)n(CCNc3nc(N)nc4[nH]cnc34)c2n1 | > 100 | >15.4 | 5.19 | – |
| CCN(CC)c1nc(C)c2nc(SCC(=O)NCCN)n(CCNc3nc(N)nc4[nH]cnc34)c2n1 | > 100 | >5 | 4.70 | – |
| CCN(CC)c1nc(C)c2nc(SCC(=O)NCCCN)n(CCCN3CCOCC3)c2n1 | 87.5 | 7.4 | 4.93 | 83 |
| CCN(CC)c1nc(C)c2nc(SCC(=O)NCCNC(=N)N)n(CCNc3nc(N)nc4[nH]cnc34)c2n1 | > 100 | >16.4 | 5.21 | – |
| CCN(CC)c1nc(C)c2nc(SCC(=O)NCCCNC(=N)N)n(CCNc3ncnc4[nH]cnc34)c2n1 | > 100 | >7.7 | 4.89 | 58.6 |
| CCN(CC)c1nc(C)c2nc(SCC(=O)NCCN)n(CCNc3ncnc4[nH]cnc34)c2n1 | > 100 | >40 | 5.60 | 48.2 |
| CCN(CC)c1nc(C)c2nc(SCC(=O)NCCNC(=N)N)n(CCCN3CCOCC3)c2n1 | > 100 | >5.3 | 4.72 | 81.8 |
| CCN(CC)c1nc(C)c2nc(SCC(=O)NCCCNC(=N)N)n(CCc3c[nH]c4ccccc34)c2n1 | 29.1 | 5.2 | 5.25 | – |
| CCN(CC)c1nc(C)c2nc(SCC(=O)NCCCN)n(CCCn3cncn3)c2n1 | 31.7 | 3.6 | 5.05 | – |
